Consider three compounds from patent publication US20150218652A1, “METHODS FOR DIAGNOSIS AND TREATMENT OF CANCER” (THE REGENTS OF THE UNVERSITY OF COLORADO, a body corporate, priority 2012, published 2015).

In assay [1] the test system is Ba/F3 cells expressing NTRK1 fusions. Description: MTS proliferation assay of Ba/F3 cells expressing NTRK1 fusions. Format: cell-based. Particulars: n=5, similar to Ba/F3 cells expressing ALK or ROS1 fusion constructs. From the text:
(§1) The half maximal inhibitory concentration (IC50) values are listed (nM).

The subject of assay [2] is KM12 cells harboring the TPM3-NTRK1 fusion. In words: MTS proliferation assay of KM12 cells. It counts as cell-based. As for the experimental part:
KM12 cells harboring the TPM3-NTRK1 fusion were lysed following 5 h treatment with the indicated doses of inhibitors and subject to immunoblot analysis (n=3).
Proliferation of KM12 cells treated with the indicated drugs and doses were assayed for cell proliferation by MTS assay.
Background: Formazan colour is commonly taken as a measure of viable cells.

Assay [3] addresses T1, TRKA (Homo sapiens, UniProt P04629).
T1 construct: the inventors expressed full length TRKA in 293T cells; expressed in transfected cells; host or cells: 293T cells, transient transfection of pCDH-MCS1-EF1-puro carrying NTRK1-HA
Description: Immunoblot of 293T cell lysates expressing TRKA-HA: TRKA and downstream signaling. It counts as cell-based. As to conditions: 293T cells, 1 μM, 5 hours, presence or absence of NGF.

The test system of another assay is ROS1 gene fusions. As to conditions: lung cancer patients harboring ROS1 gene fusions; cited from earlier work.
The test system of assay [4] is Ba/F3 cells expressing NTRK1-MPRIP. In words: MTS proliferation assay of Ba/F3 cells expressing NTRK1-MPRIP. Format: cell-based. Particulars: n=5.
From the text: as §1

Assay [5] has as its system CUTO-3 cells harboring the NTRK1-MPRIP gene fusion. In words: Immunoblot analysis of CUTO-3 cells. Format: cell-based. From the text: Colorado University Thoracic Oncology (CUTO) 3 cells were derived from a pleural effusion from the index patient harboring the NTRK1-MPRIP gene fusion.
For orientation: In western blotting, separated proteins are transferred to a membrane and probed.

In assay [6] the target is T1, TRKA. In words: Immunoprecipitation of TRKA-HA from 293T cells and anti-phosphotyrosine immunoblot. Format: cell-based. As to conditions: 293T cells, 1 μM, 5 hours, vs DMSO control.

Molecules are shown by their SMILES. Where two headings read alike, the source gives them in different places.

T1 sequence (P04629 33-796): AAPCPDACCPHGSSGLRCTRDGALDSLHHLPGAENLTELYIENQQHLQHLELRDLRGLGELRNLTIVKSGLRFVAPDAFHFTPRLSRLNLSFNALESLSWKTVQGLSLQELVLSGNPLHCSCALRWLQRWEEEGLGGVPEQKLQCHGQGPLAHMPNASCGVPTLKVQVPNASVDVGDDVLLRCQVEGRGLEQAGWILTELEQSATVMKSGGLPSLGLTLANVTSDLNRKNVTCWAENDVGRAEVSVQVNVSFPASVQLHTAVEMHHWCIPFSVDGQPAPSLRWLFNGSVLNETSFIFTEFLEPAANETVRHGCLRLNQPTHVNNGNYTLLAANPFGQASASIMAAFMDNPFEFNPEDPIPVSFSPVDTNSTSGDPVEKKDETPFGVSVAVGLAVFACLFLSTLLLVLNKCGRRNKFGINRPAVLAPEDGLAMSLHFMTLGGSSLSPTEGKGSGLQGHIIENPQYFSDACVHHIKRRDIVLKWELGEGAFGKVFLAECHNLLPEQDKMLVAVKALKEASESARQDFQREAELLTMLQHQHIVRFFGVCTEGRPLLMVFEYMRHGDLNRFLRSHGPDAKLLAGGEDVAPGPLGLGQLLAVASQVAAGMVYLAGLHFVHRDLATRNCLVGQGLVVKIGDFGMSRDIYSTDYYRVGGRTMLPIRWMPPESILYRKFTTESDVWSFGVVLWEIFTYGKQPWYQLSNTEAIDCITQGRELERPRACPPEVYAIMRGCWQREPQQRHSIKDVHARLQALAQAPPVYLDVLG

In the case of `C[C@@H](Oc1cc(-c2cnn(C3CCNCC3)c2)cnc1N)c1c(Cl)ccc(F)c1Cl` [crizotinib], the “inhibition of cell proliferation of Ba/F3 expressing NTRK1 fusions” value in assay [1] was “inhibition”. The “inhibition of proliferation of KM12 cells” value (“inhibition … of KM12 cells” below) in assay [2] (MTS assay) was “inhibited”. Further, on TRKA [3], the “phosphorylation of ERK” value is on record as “decreased phosphorylation” and the “phosphorylation of TRKA (phosphotyrosine 490, 674, 675)” value is recorded as “decreased phosphorylation”. In the assay on ROS1 gene fusions, the patient response result is recorded as “respond”.

Turning to `O=C(Nc1cnn2ccc(N3CCC[C@@H]3c3cc(F)ccc3F)nc12)N1CC[C@H](O)C1` [ARRY-470], the inhibition of proliferation entry in assay [4] was “inhibition of proliferation”. Further, in assay [5], the “inhibition of pERK” value was “inhibition” and the “inhibition of pTRKA” value is “inhibition”. In addition, the “inhibition … of KM12 cells” value in assay [2] is given as “inhibited”.

With `C[C@]12O[C@H](C[C@]1(O)CO)n1c3ccccc3c3c4c(c5c6ccccc6n2c5c31)CNC4=O` [CEP-701], the inhibition of proliferation entry in assay [4] is on record as “inhibition of proliferation”. Further, in assay [2] (MTS assay), the “inhibition … of KM12 cells” value was “inhibited”. Also, the “Phosphorylation of TRKA (anti-phosphotyrosine 4G10 after HA immunoprecipitation)” value at TRKA [6] is “significantly reduced”. On TRKA [3], the “phosphorylation of AKT” value is listed as “inhibited phosphorylation”; the “phosphorylation of ERK” value is recorded as “inhibited phosphorylation”; the “phosphorylation of TRKA (phosphotyrosine 490, 674, 675)” value was “inhibited phosphorylation”.
